Results as given in patent publication US20150150842A1, “DESETHYLAMIODARONE COMPOSITIONS” (priority 2012, published 2015).
“And” between values parts separate entries of the source, which are not always exact repeats. Equal values may be shown once.

Columns and labels:
[1] = test system: conscious dogs with structural atrial remodelling; experiment: Chronic rapid atrial pacing induced atrial remodelling and burst-induced atrial fibrillation in conscious dogs
Method: The experiments were performed on chronically instrumented Beagle dogs of both sexes, weighing 12-13 kg. The animals were subjected to the following surgery under general anaesthesia: pacemakers were implanted into bilateral subcutaneous pockets in the neck area (Logos, Karios; Biotronik Hungaria Ltd.) and were attached to pacemaker electrodes implanted into the right ventricle and right atrium. Radiofrequency catheter ablation was performed in each animal to achieve third degree atrioventricular (AV) block so that during subsequent rapid atrial pacing (400/min) the ventricles are protected from high heart rates. […] On the seventh day after surgery, following the measurement of right atrial effective refractory period the atrial pacemaker was set to a frequency of 400/min to achieve atrial electrical and structural remodelling. Right atrial rapid pacing is necessary to maintain for 3 months in this model to obtain complete remodeling of the atria signalled by the reduction of right atrial effective refractory period below 80 ms.
(§1) The body weight of animals was monitored for strict adherence to the desired dose.
(§2) The right atrial effective refractory period (ERP) was measured using the S1 -S2 protocol at cycle lengths of 150 and 300 ms. In addition ERP monitoring, 10-second long burst stimuli were applied at 800/min frequency to induce atrial fibrillation and the incidence of AF, the duration of AF episodes were measured before commencement of oral drug therapy and then after the initiation of therapy every 4 days.

[2] = test system: dog atrial and ventricular tissue; experiment: Atrial and ventricular action potential parameters after chronic oral treatment of non-instrumented dogs; assay type: in vivo, Beagle dogs; conditions: 500 ms cycle length, 4-week oral DEA 30 or AMIO 45 mg/kg/day
[3] = Cardiac, liver and lung tissue DEA and AMIO levels in dogs with atrial fibrillation and structural atrial remodelling; conditions: for concentration at 4 weeks: both, Beagle, dog, oral, 50 mg/kg/day
Method: as §1, §2
Cardiac tissue drug levels were measured in right atrial, left atrial, right ventricular and left ventricular tissue samples. Following the sacrifice of the animals (the subsequent day after the 4-week treatment), tissue samples were taken before tissue preparations were isolated for in vitro studies.

[4] = Plasma and tissue DEA and AMIO levels in non-instrumented dogs; conditions: 4-week oral AMIO 45 mg/kg/day, individual dogs 1 and 2
conscious rats = test system: conscious rats
Method: The present experiments were performed on male, Sprague-Dawley CFY rats weighing 260-300 g. During a preliminary open-chest surgery we applied a loose silk loop around the left main coronary artery, and then the chest was closed (Leprán et al., 1983). Seven-eight days after the preliminary surgery—after complete recovery and healing—the loose silk loop was tightened to occlude the coronary artery in conscious, freely moving animals. During the first 15 min of myocardial infarction a bipolar ECG was recorded continuously (PowerLab 8SP, ADInstruments, Great Britain).
We followed the survival rate during the acute phase (first 15 min) and during the subsequent 16 hours after coronary artery occlusion. The incidence and duration of arrhythmias in the acute phase were evaluated according to the Lambeth Conventions (Walker et al., 1988), i.e. ventricular fibrillation, ventricular tachycardia, and other types of arrhythmias, including ventricular extrasystoles, bigeminy, and salvos. The size of myocardial infarction was measured in the animals surviving for 16 hours after coronary artery occlusion using nitrotetrazolium-blue dye staining.
Long-term oral pretreatment was applied for 1 month before the coronary artery occlusion. […] Control animals were given the vehicle in a volume of 5 ml/kg.

rats = experiment: Chronic 28-day non-GLP toxicology in rats
[5] = dogs with AF, 4-week oral AMIO 50 mg/kg/day
[6] = dogs with structural atrial remodelling, 4-week oral AMIO 50 mg/kg/day

Structure (SMILES): CCCCc1oc2ccccc2c1C(=O)c1cc(I)c(OCCN(CC)CC)c(I)c1 [AMIO, amiodarone]
- Mood, behaviour, appetite and body weight ([1]; dogs, 4-week oral, DEA 25, AMIO 50 mg/kg/day): loss of appetite followed by a reduction in body weight
- Lg AF duration, Following 4-week treatment, individual animals ([1]; oral AMIO 50 mg/kg/day, Control (before) 2.59, 3.12, 4.35): 1.35 and 0.88 and 0.12
- AF duration (s), Following 4-week treatment, individual animals ([1]; oral AMIO 50 mg/kg/day, Control (before) 386.5, 1 302.9, 2 2663.7): 22.5 s and 7.5 s and 1.31 s
- ERP, Following 4-week treatment, individual animals ([1]; oral AMIO 50 mg/kg/day, animals 2011/01, 2011/08, 2011/9, Control (before) 90, <80, 80): 100 ms (2×) and 130 ms
- Incidence of AF, Following 4-week treatment, individual animals ([1]; oral AMIO 50 mg/kg/day, burst-induced AF, Control (before) 100%, 90%, 67%): 40% and 10% (2×)
- Lg AF duration, Following 4-week treatment, Mean ± SE ([1]; oral AMIO 50 mg/kg/day, n=3, Control (before) 3.35 ± 0.52): 0.78 ± 0.36
- Incidence of AF, Following 4-week treatment, Mean ± SE ([1]; oral AMIO 50 mg/kg/day, n=3, Control (before) 88.0 ± 10.54): 20.0 ± 10.0 %
- AF duration (s), Following 4-week treatment, Mean ± SE ([1]; oral AMIO 50 mg/kg/day, n=3, Control (before) 8117.7 ± 7277.8): 10.4 ± 6.29 s
- Incidence and duration of atrial fibrillation ([1]; three animals, 4-week oral treatment, DEA 25, AMIO 50 mg/kg/day, accompanied by prolongation of the ERP): showed a decreasing tendency
- Vmax (V/s), Dog atrium ([2]; n = 3, CONTROL 249.7 ± 52.7): 252.9 ± 56.7 V/s
- APD90 (ms), Dog atrium ([2]; n = 4, CONTROL 123.9 ± 9.6): 140.8 ± 12.4 ms
- Liver and lung tissue concentrations of DEA in chronic AMIO treated dogs compared to chronic DEA treated dogs ([3]; AF model dogs, oral AMIO 50 mg/kg/day vs DEA 25 mg/kg/day): more than three times higher
- concentration at 4 weeks ([3]; left atrium, Left atrium AMIO level, Mean, dogs with AF, 4-week oral AMIO 50 mg/kg/day, n=3): 35200 ng/g
- concentration at 4 weeks ([3]; left atrium, Left atrium AMIO level, individual animals, dogs with AF, 4-week oral AMIO 50 mg/kg/day): 32600 ng/g
- concentration at 4 weeks ([3]; left ventricle, Left ventricle AMIO level, Mean, dogs with AF, 4-week oral AMIO 50 mg/kg/day, n=3): 34400 ng/g
- concentration at 4 weeks ([3]; left ventricle, Left ventricle AMIO level, individual animals, dogs with AF, 4-week oral AMIO 50 mg/kg/day): 36600 ng/g
- concentration at 4 weeks ([3]; right atrium, Right atrium AMIO level, Mean, dogs with AF, 4-week oral AMIO 50 mg/kg/day, n=3): 24600 ng/g
- concentration at 4 weeks ([3]; right ventricle, Right ventricle AMIO level, Mean, dogs with AF, 4-week oral AMIO 50 mg/kg/day, n=3): 34700 ng/g
- concentration at 4 weeks ([3]; right ventricle, Right ventricle AMIO level, individual animals, dogs with AF, 4-week oral AMIO 50 mg/kg/day): 40800 ng/g
- Left atrium AMIO level, individual animals [3, 5]: 39.045 μg/tissue g and 33.89 μg/tissue g
- Left ventricle AMIO level, individual animals [3, 5]: 42.573 μg/tissue g and 24.061 μg/tissue g
- Right atrium AMIO level, individual animals [3, 5]: 47.005 μg/tissue g and 19.936 μg/tissue g and 6.933 μg/tissue g
- Right ventricle AMIO level, individual animals [3, 5]: 37.033 μg/tissue g and 26.349 μg/tissue g
- Liver AMIO level, Mean ± SE [3, 6]: 126.8 ± 41.58 μg/tissue g
- Liver AMIO level, individual animals [3, 6]: 123.961 μg/tissue g and 200.27 μg/tissue g and 56.314 μg/tissue g
- Lung AMIO level, Mean ± SE [3, 6]: 215.1 ± 60.12 μg/tissue g
- Lung AMIO level, individual animals [3, 6]: 312.24 μg/tissue g and 227.793 μg/tissue g and 105.152 μg/tissue g
- Kidney AMIO level [4]: 112.173 μg/tissue g
- Left Ventricle AMIO level [4]: 81.928 μg/tissue g
- Liver AMIO level [4]: 177.317 μg/tissue g
- Lung AMIO level [4]: 178.360 μg/tissue g
- Right Atrium AMIO level [4]: 75.854 μg/tissue g and 152.023 μg/tissue g
- Death due to the 1 month treatment (conscious rats; 1 month oral pretreatment): No death occurred
- Survival rate during the acute phase of experimental myocardial infarction (conscious rats; 1 month oral pretreatment): significantly improved
- Behavioral changes, body weight increments (conscious rats; 1 month oral pretreatment, AMIO 30 or 100, DEA 15 or 50 mg/kg/day): Neither AMIO nor DEA produced any behavioral changes of the animals, or in body weight increments
- Arrhythmia score (conscious rats; first 15 min after coronary artery occlusion, 1 month oral AMIO 100 or DEA 50 mg/kg/day, control 4.77±0.33): 2.05±0.52
- Incidence of ventricular fibrillation (conscious rats; larger doses (AMIO 100, DEA 50 mg/kg/day), after coronary artery occlusion): significantly decreased
- Hepatic function alterations (total cholesterol, alkaline phosphatase [ALP]) (rats; 28-day oral AMIO 200 mg/kg/day compared to DEA 100 mg/kg/day): more robust
- Alveolar histiocytosis in the lungs (rats; 28-day oral AMIO 200 mg/kg/day or DEA 100 mg/kg/day): alveolar histiocytosis was detected
- Detection of the administered drug 14 days after the completion of administration (rats; 28-day oral AMIO 200 mg/kg/day or DEA 100 mg/kg/day, plasma (DEA: plasma or cardiac tissue)): could be detected in plasma samples
- Increase in body weight following 28-day treatment (rats; AMIO 200 mg/kg/day or DEA 100 mg/kg/day, normal increase 44 g): 13 g
- Food consumption and appetite (rats; first 3 weeks of 200 mg/kg/day AMIO, compared to control and 100 mg/kg/day DEA treated animals): reduced
